The values below come from patent US20040121965A1, “Method of treating resistant tumors” (Wyeth Holdings Corporation, priority 2002, published 2004).

Where two headings read alike, the source gives them in different places.

One experiment has as its system KB-8-5 (MDR1+). Description: Cell survival assay (SRB), KB-8-5 (MDR1+). To be noted: for IC50: Homo sapiens, MDR1, read-out: In vitro IC50 (nM) KB85.
Another experiment has as its system KB-3-1. Put plainly: Cell survival assay (SRB), KB-3-1. In kind it is cell-based, human. To be noted: Homo sapiens. An excerpt:
Cells lines with previously known mechanisms of resistance. […] Res. 8: 207-218,1996); KB-3-1 (parental derived from an epidermoid carcinoma), KB-8.5, KB-V1 (Akiyama S-I, Fojo A, Hanover J A, Pastan I, Gottesman M M. Isolation and genetic characterization of human KB cell lines resistant to multiple drugs. Somatic Cell Mol. Gen., 11: 117-126,1985; Shen D-W, Cardarelli C, Hwang J, Cornwell M, Richert N, Ishii S, Pastan I, Gottesman MM. […] J. Biol. Chem., 261: 7762-7770, 1986); and HL-60 (parental derived from human leukemia) and HL60/AR (McGrath T., Center M. S. Adriamycin resistance in HL60 cells in the absence of detectable P-glycoprotein. Biochem. Res. Commun., 145:1171-1176,1987); A549 and A549.EpoB40 (He L., Yang C.-P.H., Horwitz S. B. Mutations in p-tubulin map to domains involved in regulation of microtubule stability in epothilone-resistant cell lines. Molecular Cancer Therapeutics. 1: 3-10, 2001). HCT-15 human colon carcinoma and DLD-1 human colon carcinoma are obtained from American Tissue Culture Collection. The MX-1W carcinoma is a Wyeth variant orginally obtained as MX-1 breast carcinoma from the National Cancer Institute. Cell lines selected for resistance to Representative Example 129. KB-3-1 cells are selected for resistance to Example 129 by chronically exposing cells to increasing concentrations of Example 129.
2.2. Cell Survival Assay: Standard Pharmacological Test Procedure. The concentration of candidate inhibitor required to inhibit 50% of cell growth (IC50) is done according to previously reported methods. […] Compounds are serially diluted into media as 2× stocks and 100 μl added to cells in duplicate. Compounds are incubated with cells for 3 days. At the end of the incubation period the sulforhodamine B (SRB) assay, which measures protein content as an assessment of cell survival, is performed as described previously (Skehan P, Storeng R, Scudiero D, Monks A, McMahon J, Vistica D, Warren J T, Bokesch H, Kenney S, Boyd MR. New calorimetric cytotoxicity assay for anticancer-drug screening. J Natl Cancer Inst 1990 Jul 4;82(13):1107-12) with some modification as follows. For KB-3-1 cells with 20% FCS, media is gently decanted and replaced with 200 μl of serum-free media mixed with cold 50% TCA for a final concentration of 10% TCA. The plates are incubated for 1 hr at 4° C., followed by washing 5 times in cold distilled water, then air dried overnight. The fixed cells are stained for 10 min with 80 μl of 0.04% SRB solution prepared in 1% glacial acetic acid. Stain is discarded and plates washed 5 times in 1% glacial acetic acid, then air-dried until completely dry. Stained cell product is dissolved in 150 μl of 10 mM Trizma Base and placed on a shaker for 20 minutes until fully dissolved. Absorbance is read on a Victor V multi-label plate reader (Perkin Elmer, Gaithersburg, Md.).

Another experiment deals with KB-V1 (MDR1++). Put plainly: Cell survival assay (SRB), KB-V1 (MDR1++). To be noted: for IC50: Homo sapiens.
Where [1] appears, read: KB 3-1, KB-3-1 cells (paclitaxel-sensitive parent), read-out: In vitro IC50 (nM) KB-3-1.
The mark [2] stands for this setting: read-out: In vitro IC50 (nM) KBV1.

As to `CN[C@H](C(=O)N[C@@H](CCc1ccccc1)C(=O)N(C)[C@H](/C=C(\C)C(=O)O)C(C)C)C(C)(C)c1ccccc1` [Example 89, (E ,4S)-2,5-Dimethyl-4-[methyl((2S)-2-{[(2S)-3-methyl-2-(methylamino)-3-phenylbutanoyl]amino}4-phenylbutanoyl)amino]-2-hexenoic Acid], in the experiment with KB-8-5 (MDR1+), the “Ratio KB85/KB” value came out at 1.5. Moreover, the concentration for half-maximal inhibition (IC50) (commonly the midpoint of a concentration-inhibition curve) was 274 nM in the experiment with KB-8-5 (MDR1+), 180 nM with KB-3-1 (setting [1]) and ≥ 3000 nM in the experiment on KB-V1 (MDR1++) (setting [2]). The “Ratio KBV1/KB” value in the experiment on KB-V1 (MDR1++) was 16.6.

Regarding `CN[C@H](C(=O)N[C@H](C(=O)N(C)[C@H](/C=C(\C)C(=O)O)C(C)C)[C@H](C)OC)C(C)(C)c1ccccc1` [Example 88, N,β,β-trimethyl-L-phenylalanyl-N^1-[(1S,2E)-3-carboxy-1-isopropyl-2-butenyl]-N^1,O-dimethyl-L-allothreoninamide], the “Ratio KB85/KB” value in the experiment with KB-8-5 (MDR1+) is given as 2.0. For the same molecule, the results for the IC50 in the experiment on KB-8-5 (MDR1+), with KB-3-1 (setting [1]) and in the experiment on KB-V1 (MDR1++) (setting [2]) were 1740 nM, 871 nM and ≥ 3000 nM, respectively. In addition, in the experiment on KB-V1 (MDR1++), the “Ratio KBV1/KB” value stood at 3.4.

As for `CN[C@H](C(=O)N[C@H](C(=O)N(C)[C@H](/C=C(\C)C(=O)O)C(C)C)C(C)(C)C)C(C)(C)c1ccc(C(=O)O)cc1` [Example 45, 4-carboxy-N,β,β-trimethylphenylalanyl-N^1-[(1S,2E)-3-carboxy-1-isopropylbut-2-enyl]-N^1,3-dimethyl-L-valinamide], in the experiment with KB-8-5 (MDR1+), the “Ratio KB85/KB” value is listed as 2.3. For the same molecule, the IC50 with KB-8-5 (MDR1+) is 1530 nM; in the experiment with KB-3-1 (setting [1]), 680 nM; in the experiment with KB-V1 (MDR1++) (read-out: In vitro IC50 KBV1) it was > 3000 nM.

For the molecule `CN[C@H](C(=O)N[C@@H](C(=O)N(C)[C@H](/C=C(\C)C(=O)O)C(C)C)C(C)(C)F)C(C)(C)c1ccccc1` [Example 148, N,β,β-trimethyl-L-phenylalanyl-N^1-[(1S,2E)-3-carboxy-1-isopropylbut-2′enyl]-3-fluoro-N^1-methyl-D-valinamide], the “Ratio KB85/KB” value in the experiment with KB-8-5 (MDR1+) is recorded as 2.2. For the same molecule, the IC50 in the experiment on KB-8-5 (MDR1+) is 193 nM; in the experiment on KB-3-1 (setting [1]) it was 88 nM; in the experiment on KB-V1 (MDR1++) (setting [2]), > 3000 nM. The “Ratio KBV1/KB” value in the experiment with KB-V1 (MDR1++) was 34.1.

On to `CNC(C(=O)N[C@H](C(=O)N(C)[C@H](/C=C(\C)C(=O)O)C(C)C)C(C)(C)C)C1(c2ccccc2)CC1` (stereo in doubt) [Example 143, (2E,4S)-2,5-dimethyl-4-(methyl{3-methyl-N-[(2R)-2-(methylamino)-2-(1-phenylcyclopropyl)acetyl]-L-valyl}amino)hex-2-enoic Acid], for which the “Ratio KB85/KB” value in the experiment on KB-8-5 (MDR1+) is 2.1. The IC50 stood at 57 nM with KB-8-5 (MDR1+), 27 nM with KB-3-1 (setting [1]) and 1660 nM in the experiment on KB-V1 (MDR1++) (setting [2]). The “Ratio KBV1/KB” value in the experiment on KB-V1 (MDR1++) worked out at 61.6.

In the case of `CN[C@H](C(=O)N[C@H](C(=O)N(C)[C@H](/C=C(\C)C(=O)O)C(C)C)C(C)(C)SCc1ccc(OC)cc1)C(C)(C)c1ccccc1` [Example 82, N,β,β-trimethyl-L-phenylalanyl-N^1-[(1S,2E)-3-carboxy-1-isopropyl-2-butenyl]-3-[(4-methoxybenzyl)sulfanyl]-N^1-methyl-L-valinamide], in the experiment with KB-8-5 (MDR1+), the “Ratio KB85/KB” value worked out at 1.7. The figures for the IC50 in the experiment with KB-8-5 (MDR1+), in the experiment with KB-3-1 (setting [1]) and in the experiment with KB-V1 (MDR1++) (setting [2]) were 100 nM, 59 nM and 2360 nM, respectively. The “Ratio KBV1/KB” value with KB-V1 (MDR1++) is 40.1.

For the molecule `CCC[C@H](NC(=O)[C@@H](NC)C(C)(C)c1ccccc1)C(=O)N(C)[C@H](/C=C(\C)C(=O)O)C(C)C.O=C(O)C(F)(F)F` [Example 97, N,β,β-trimethyl-L-phenylalanyl-N^1-[(1S,2E)-3-carboxy-1-isopropylbut-2-enyl]-N^1-methyl-L-norvalinamide Trifluoroacetic Acid], the “Ratio KB85/KB” value in the experiment on KB-8-5 (MDR1+) is reported as 1.3. In addition, the results for the half-inhibitory concentration (IC50) with KB-8-5 (MDR1+), in the experiment on KB-3-1 (setting [1]) and with KB-V1 (MDR1++) (setting [2]) were 19 nM, 15 nM and 575 nM, respectively. Also, in the experiment on KB-V1 (MDR1++), the “Ratio KBV1/KB” value is on record as 38.3.

In the case of `CNC(C(=O)NC(C)C(=O)N(C)C(C=C(C)C(=O)O)C(C)C)C(C)(C)c1ccccc1.O=C(O)C(F)(F)F` (stereo not shown) [Example 103, 2,5-dimethyl-4-{methyl-[2-(3-methyl-2-methylamino-3-phenyl-butyrylamino)-propionyl]-amino}-hex-2-enoic Acid Trifluoroacetic Acid], in the experiment on KB-8-5 (MDR1+), the “Ratio KB85/KB” value amounted to 13.3. For the same molecule, the 50% inhibitory concentration (IC50) in the experiment with KB-8-5 (MDR1+) was 2260 nM; in the experiment on KB-3-1 (setting [1]) it was 170 nM; in the experiment on KB-V1 (MDR1++) (setting [2]), 2610 nM. Further, the “Ratio KBV1/KB” value in the experiment on KB-V1 (MDR1++) came out at 15.3.

In the case of `CCOC(=O)/C(C)=C/[C@H](C(C)C)N(C)C(=O)[C@@H](NC(=O)[C@H](NC)C(C)(C)c1cccc(C)c1)C(C)(C)C` [Example 7b, N,β,β,3-tetramethyl-D-phenylalanyl-N^1-[(1S,2E)-4-ethoxy-1-isopropyl-3-methyl4-oxo-2-butenyl]-N^1,3-dimethyl-L-valinamide], the “Ratio KB85/KB” value with KB-8-5 (MDR1+) is reported as 6.5. Further, the IC50 was 1700 nM in the experiment with KB-8-5 (MDR1+), 263 nM in the experiment with KB-3-1 (setting [1]) and ≥ 3000 nM in the experiment with KB-V1 (MDR1++) (setting [2]). Besides, in the experiment with KB-V1 (MDR1++), the “Ratio KBV1/KB” value worked out at 11.4.

In the case of `CN[C@H](C(=O)N[C@H](C(=O)N(C)[C@@H](/C=C(\C)C(=O)O)C(C)C)C(C)(C)C)C(C)(C)c1ccccc1` [Example 157, N,β,β-trimethyl-L-phenylalanyl-N^1-[(1R,2E)-3-carboxy-1-isopropylbut-2-enyl]-N^1,3-dimethyl-L-valinamide], the “Ratio KB85/KB” value with KB-8-5 (MDR1+) is listed as 2.7. The 50% inhibitory concentration (IC50) with KB-8-5 (MDR1+) was 1650 nM; in the experiment on KB-3-1 (KB 3-1, read-out: In vitro IC50 (nM) KB-3-1) it was 605 nM; with KB-V1 (MDR1++) (setting [2]), > 3000 nM. In addition, in the experiment on KB-V1 (MDR1++), the “Ratio KBV1/KB” value is on record as 5.0.

With `CCCCCC(C)(C)[C@H](NC)C(=O)N[C@H](C(=O)N(C)[C@H](/C=C(\C)C(=O)O)C(C)C)C(C)(C)C` [Example 50, (2E,4S)-4-[((2S)-2-{[(2S)-3,3-dimethyl-2-(methylamino)octanoyl]amino}-3,3-dimethylbutanoyl)(methyl)amino]-2,5-dimethyl-2-hexenoic acid], the “Ratio KB85/KB” value with KB-8-5 (MDR1+) is 2.2. For the same molecule, the IC50 with KB-8-5 (MDR1+) worked out at 19 nM; in the experiment with KB-3-1 (setting [1]) it was 8.7 nM; in the experiment on KB-V1 (MDR1++) (setting [2]), 513 nM. Besides, in the experiment with KB-V1 (MDR1++), the “Ratio KBV1/KB” value was 58.9.

Regarding `CCOC(=O)/C(C)=C/C(C(C)C)N(C)C(=O)[C@@H](NC(=O)[C@@H](NC)C(C)(C)c1ccccc1)[C@H](C)O` (stereo in doubt) [Example 85, N,β,β-trimethyl-L-phenylalanyl-N^1-[(1R,2E)-4-ethoxy-1-isopropyl-3-methyl-4-oxo-2-butenyl]-N^1-methyl-L-allothreoninamide], the “Ratio KB85/KB” value with KB-8-5 (MDR1+) worked out at 11.5. In addition, the results for the IC50 with KB-8-5 (MDR1+), in the experiment on KB-3-1 (setting [1]) and in the experiment with KB-V1 (MDR1++) (setting [2]) were 1330 nM, 115 nM and ≥ 3000 nM, respectively. In the experiment with KB-V1 (MDR1++), the “Ratio KBV1/KB” value was found to be 26.0.

On to `CN[C@H](C(=O)N[C@@H](Cc1ccccc1)C(=O)N(C)[C@H](/C=C(\C)C(=O)O)C(C)C)C(C)(C)c1ccccc1` [Example 137, (E,4S)-2,5-dimethyl4-[methyl((2S)-2-{[(2S)-3-methyl-2-(methylamino)-3-phenylbutanoyl]amino}-3-phenylpropanoyl)amino]-2-hexenoic Acid], for which, in the experiment on KB-8-5 (MDR1+), the “Ratio KB85/KB” value came out at 1.7. Moreover, the IC50 with KB-8-5 (MDR1+) was 1580 nM; with KB-3-1 (setting [1]) it was 934 nM; in the experiment on KB-V1 (MDR1++) (setting [2]), ≥ 3000 nM. Besides, the “Ratio KBV1/KB” value with KB-V1 (MDR1++) came to 3.2.
